Experimental data published in US7192906B2, “Substituted pyrazole derivatives, production process thereof, and herbicide compositions containing the derivatives” (SDS Biotech K.K., priority 2001, dated 2007).

What follows are molecules tested on Chenopodium album (assay: Test Example 1 upland field foliage treatment). Conditions: Table 4, upland field foliage treatment, index 0-5.
Format: in vivo
In short: (§1)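 Scores are visual 0–5 ratings of herbicidal effect or crop injury (0: under 10%; 5: 90% or more) taken 21 days after treatment. Plants grew from seed in upland soil for 14 days, then foliage received the compound as a water-diluted wettable powder at 1 kg/ha active ingredient.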

SMILES | Herbicidal activity CA: Chenopodium album
CNC(=O)C(Cn1cc(C)c(-c2ccc(F)cc2F)n1)=NOC [Compound 56] | 5 (herbicidal effect of not less than 90%, or phytotoxicity of 90% or more)
CNC(=O)C(Cn1cc(C)c(-c2cc(F)ccc2F)n1)=NOC [Compound 57] | 5 (herbicidal effect of not less than 90%, or phytotoxicity of 90% or more)

What follows are molecules tested on Digitaria adscendens (assay: Test Example 1 upland field foliage treatment). Conditions: Table 4, upland field foliage treatment, index 0-5.
Format: in vivo
In short: as §1

SMILES | Herbicidal activity DA: Digitaria adscendens
CNC(=O)C(Cn1cc(C)c(-c2ccc(F)cc2F)n1)=NOC [Compound 56] | 5 (herbicidal effect of not less than 90%, or phytotoxicity of 90% or more)
CNC(=O)C(Cn1cc(C)c(-c2cc(F)ccc2F)n1)=NOC [Compound 57] | 5 (herbicidal effect of not less than 90%, or phytotoxicity of 90% or more)

Each molecule was assayed on Setaria viridis (assay: Test Example 1 upland field foliage treatment). Conditions: Table 4, upland field foliage treatment, index 0-5.
Format: in vivo
In short: as §1

SMILES | Herbicidal activity SV: Setaria viridis
CNC(=O)C(Cn1cc(C)c(-c2ccc(F)cc2F)n1)=NOC [Compound 56] | 5 (herbicidal effect of not less than 90%, or phytotoxicity of 90% or more)
CNC(=O)C(Cn1cc(C)c(-c2cc(F)ccc2F)n1)=NOC [Compound 57] | 5 (herbicidal effect of not less than 90%, or phytotoxicity of 90% or more)

Each molecule was assayed on Stellaria media (assay: Test Example 1 upland field foliage treatment). Conditions: Table 4, upland field foliage treatment, index 0-5.
Format: in vivo
In short: as §1

SMILES | Herbicidal activity SM: Stellaria media
CNC(=O)C(Cn1cc(C)c(-c2ccc(F)cc2F)n1)=NOC [Compound 56] | 5 (herbicidal effect of not less than 90%, or phytotoxicity of 90% or more)
CNC(=O)C(Cn1cc(C)c(-c2cc(F)ccc2F)n1)=NOC [Compound 57] | 5 (herbicidal effect of not less than 90%, or phytotoxicity of 90% or more)

Each molecule was assayed on soybean (Glycine max) (assay: Test Example 1 upland field foliage treatment, crop phytotoxicity). Conditions: Table 4, upland field foliage treatment, index 0-5.
Format: in vivo
In short: as §1

SMILES | Herbicidal activity (phytotoxicity) GM: Soybean (Glycine max)
CNC(=O)C(Cn1cc(C)c(-c2ccc(F)cc2F)n1)=NOC [Compound 56] | 0 (herbicidal effect of not less than 0% and less than 10%, or phytotoxicity of 0% or more and less than 10%)
CNC(=O)C(Cn1cc(C)c(-c2cc(F)ccc2F)n1)=NOC [Compound 57] | 0 (herbicidal effect of not less than 0% and less than 10%, or phytotoxicity of 0% or more and less than 10%)

What follows are molecules tested on wheat (Triticum aestivum) in the same assay as above. Conditions: Table 4, upland field foliage treatment, index 0-5.
Format: in vivo
In short: as §1

SMILES | Herbicidal activity (phytotoxicity) TA: Wheat (Triticum aestivum)
CNC(=O)C(Cn1cc(C)c(-c2ccc(F)cc2F)n1)=NOC [Compound 56] | 0 (herbicidal effect of not less than 0% and less than 10%, or phytotoxicity of 0% or more and less than 10%)
CNC(=O)C(Cn1cc(C)c(-c2cc(F)ccc2F)n1)=NOC [Compound 57] | 0 (herbicidal effect of not less than 0% and less than 10%, or phytotoxicity of 0% or more and less than 10%)

What follows are molecules tested on Chenopodium album (assay: Test Example 2 upland soil treatment). Conditions: Table 5, upland soil treatment, index 0-5.
Format: in vivo
In short: (§2)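 Visual 0–5 grading of herbicidal effect or phytotoxicity, made 21 days after a single pre-emergence soil-surface application at 1 kg a.i./ha.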

SMILES | Herbicidal activity CA: Chenopodium album
CNC(=O)C(Cn1cc(C)c(-c2ccc(F)cc2F)n1)=NOC [Compound 56] | 5 (herbicidal effect of not less than 90%, or phytotoxicity of 90% or more)
CNC(=O)C(Cn1cc(C)c(-c2cc(F)ccc2F)n1)=NOC [Compound 57] | 5 (herbicidal effect of not less than 90%, or phytotoxicity of 90% or more)

These molecules were tested on Digitaria adscendens (assay: Test Example 2 upland soil treatment). Conditions: Table 5, upland soil treatment, index 0-5.
Format: in vivo
In short: as §2

SMILES | Herbicidal activity DA: Digitaria adscendens
CNC(=O)C(Cn1cc(C)c(-c2ccc(F)cc2F)n1)=NOC [Compound 56] | 5 (herbicidal effect of not less than 90%, or phytotoxicity of 90% or more)
CNC(=O)C(Cn1cc(C)c(-c2cc(F)ccc2F)n1)=NOC [Compound 57] | 5 (herbicidal effect of not less than 90%, or phytotoxicity of 90% or more)

Each molecule was assayed on Setaria viridis (assay: Test Example 2 upland soil treatment). Conditions: Table 5, upland soil treatment, index 0-5.
Format: in vivo
In short: as §2

SMILES | Herbicidal activity SV: Setaria viridis
CNC(=O)C(Cn1cc(C)c(-c2ccc(F)cc2F)n1)=NOC [Compound 56] | 5 (herbicidal effect of not less than 90%, or phytotoxicity of 90% or more)
CNC(=O)C(Cn1cc(C)c(-c2cc(F)ccc2F)n1)=NOC [Compound 57] | 5 (herbicidal effect of not less than 90%, or phytotoxicity of 90% or more)

These molecules were tested on Stellaria media (assay: Test Example 2 upland soil treatment). Conditions: Table 5, upland soil treatment, index 0-5.
Format: in vivo
In short: as §2

SMILES | Herbicidal activity SM: Stellaria media
CNC(=O)C(Cn1cc(C)c(-c2ccc(F)cc2F)n1)=NOC [Compound 56] | 5 (herbicidal effect of not less than 90%, or phytotoxicity of 90% or more)
CNC(=O)C(Cn1cc(C)c(-c2cc(F)ccc2F)n1)=NOC [Compound 57] | 5 (herbicidal effect of not less than 90%, or phytotoxicity of 90% or more)

Each molecule was assayed on soybean (Glycine max) (assay: Test Example 2 upland soil treatment, crop phytotoxicity). Conditions: Table 5, upland soil treatment, index 0-5.
Format: in vivo
In short: as §2

SMILES | Herbicidal activity (phytotoxicity) GM: Soybean (Glycine max)
CNC(=O)C(Cn1cc(C)c(-c2ccc(F)cc2F)n1)=NOC [Compound 56] | 1 (herbicidal effect of not less than 10% and less than 30%, or phytotoxicity of 10% or more and less than 30%)
CNC(=O)C(Cn1cc(C)c(-c2cc(F)ccc2F)n1)=NOC [Compound 57] | 0 (herbicidal effect of not less than 0% and less than 10%, or phytotoxicity of 0% or more and less than 10%)

Each molecule was assayed on wheat (Triticum aestivum) in the same assay as above. Conditions: Table 5, upland soil treatment, index 0-5.
Format: in vivo
In short: as §2

SMILES | Herbicidal activity (phytotoxicity) TA: Wheat (Triticum aestivum)
CNC(=O)C(Cn1cc(C)c(-c2ccc(F)cc2F)n1)=NOC [Compound 56] | 0 (herbicidal effect of not less than 0% and less than 10%, or phytotoxicity of 0% or more and less than 10%)
CNC(=O)C(Cn1cc(C)c(-c2cc(F)ccc2F)n1)=NOC [Compound 57] | 0 (herbicidal effect of not less than 0% and less than 10%, or phytotoxicity of 0% or more and less than 10%)

What follows are molecules tested on Ammannia multiflora (assay: Test Example 3 paddy field treatment). Conditions: Table 6, paddy field treatment, active ingredient 1 kg per hectare, 21st day after dropping, index 0-5.
Format: in vivo
In short: (§3)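 Weed seeds sown in puddled paddy soil under 4 cm water, with two-leaf Koshihikari rice transplanted; 10 days later a wettable powder was applied to the water surface at 1 kg active ingredient/ha. Scored 21 days after application on a 0–5 scale (0 = <10%, 5 = ≥90% herbicidal effect or phytotoxicity).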

SMILES | Herbicidal activity AM
CNC(=O)C(Cn1cc(C)c(-c2ccc(F)cc2F)n1)=NOC [Compound 56] | 5 (herbicidal effect of not less than 90%, or phytotoxicity of 90% or more)
CNC(=O)C(Cn1cc(C)c(-c2cc(F)ccc2F)n1)=NOC [Compound 57] | 5 (herbicidal effect of not less than 90%, or phytotoxicity of 90% or more)

These molecules were tested on Echinochloa crusgalli (assay: Test Example 3 paddy field treatment). Conditions: Table 6, paddy field treatment, active ingredient 1 kg per hectare, 21st day after dropping, index 0-5.
Format: in vivo
In short: as §3

SMILES | Herbicidal activity EC
CNC(=O)C(Cn1cc(C)c(-c2ccc(F)cc2F)n1)=NOC [Compound 56] | 5 (herbicidal effect of not less than 90%, or phytotoxicity of 90% or more)
CNC(=O)C(Cn1cc(C)c(-c2cc(F)ccc2F)n1)=NOC [Compound 57] | 5 (herbicidal effect of not less than 90%, or phytotoxicity of 90% or more)

What follows are molecules tested on Monochoria vaginalis (assay: Test Example 3 paddy field treatment). Conditions: Table 6, paddy field treatment, active ingredient 1 kg per hectare, 21st day after dropping, index 0-5.
Format: in vivo
In short: as §3

SMILES | Herbicidal activity MV
CNC(=O)C(Cn1cc(C)c(-c2ccc(F)cc2F)n1)=NOC [Compound 56] | 5 (herbicidal effect of not less than 90%, or phytotoxicity of 90% or more)
CNC(=O)C(Cn1cc(C)c(-c2cc(F)ccc2F)n1)=NOC [Compound 57] | 5 (herbicidal effect of not less than 90%, or phytotoxicity of 90% or more)

The molecules below were run on Scirpus juncoides (assay: Test Example 3 paddy field treatment). Conditions: Table 6, paddy field treatment, active ingredient 1 kg per hectare, 21st day after dropping, index 0-5.
Format: in vivo
In short: as §3

SMILES | Herbicidal activity SJ
CNC(=O)C(Cn1cc(C)c(-c2ccc(F)cc2F)n1)=NOC [Compound 56] | 5 (herbicidal effect of not less than 90%, or phytotoxicity of 90% or more)
CNC(=O)C(Cn1cc(C)c(-c2cc(F)ccc2F)n1)=NOC [Compound 57] | 5 (herbicidal effect of not less than 90%, or phytotoxicity of 90% or more)

Each molecule was assayed on Rice (Oryza sativa) (assay: Test Example 3 paddy field treatment, crop phytotoxicity). Conditions: Table 6, paddy field treatment, transplanted rice, active ingredient 1 kg per hectare, 21st day after dropping, index 0-5.
Format: in vivo
In short: as §3

SMILES | Herbicidal activity (phytotoxicity) OS
CNC(=O)C(Cn1cc(C)c(-c2ccc(F)cc2F)n1)=NOC [Compound 56] | 0 (herbicidal effect of not less than 0% and less than 10%, or phytotoxicity of 0% or more and less than 10%)
CNC(=O)C(Cn1cc(C)c(-c2cc(F)ccc2F)n1)=NOC [Compound 57] | 0 (herbicidal effect of not less than 0% and less than 10%, or phytotoxicity of 0% or more and less than 10%)
